Laboratory results: ChEMBL document CHEMBL1201862, “PubChem BioAssay data set” (2004)
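Exposure lasted 48 hours, with cells grown in 96-well plates and compounds tested at five concentrations. At the GI50, growth is halved.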 The source made the active and inactive calls. No stated cut-off is given here; in the data, active = GI50 up to about 1.1 µM and inactive = higher.

Assays:
Test in all cases: NCI tumour cell line growth inhibition, 48 h
786-0 = system: 786-0
COLO 205 = system: COLO 205
EKVX = system: EKVX
HCT-116 = system: HCT-116
HOP-92 = system: HOP-92
HT-29 = system: HT-29
IGROV-1 = system: IGROV-1
K562 = system: K562
KM12 = system: KM12
OVCAR-3 = system: OVCAR-3
OVCAR-5 = system: OVCAR-5
OVCAR-8 = system: OVCAR-8
SF-268 = system: SF-268
SF-295 = system: SF-295
SK-OV-3 = system: SK-OV-3
SR = system: SR
SW-620 = system: SW-620
T47D = system: T47D
UO-31 = system: UO-31
SNB-75 = system: SNB-75

Measured: GI50

C#CCOC(=O)C(=[N+]=[N-])C(=O)CC(C)C
inactive: 786-0 > 10 µM | COLO 205 > 10 µM | EKVX > 10 µM | HCT-116 > 10 µM | HOP-92 > 10 µM | HT-29 > 10 µM | IGROV-1 > 10 µM | K562 > 10 µM | KM12 > 10 µM | OVCAR-3 > 10 µM | OVCAR-5 > 10 µM | OVCAR-8 > 10 µM | SF-268 > 10 µM | SF-295 > 10 µM | SK-OV-3 > 10 µM | SR > 10 µM | SW-620 > 10 µM | T47D > 10 µM | UO-31 > 10 µM

Cc1cc(NS(=O)(=O)c2ccc(Nc3c4ccccc4nc4c(C(=O)NCCO)cccc34)cc2)no1
inactive: 786-0 30.8 µM | COLO 205 32.9 µM | EKVX 60 µM | HOP-92 20.5 µM | HT-29 29 µM | IGROV-1 25.1 µM | K562 26.3 µM | KM12 23.9 µM | OVCAR-3 21.9 µM | OVCAR-5 13.3 µM | OVCAR-8 34.5 µM | SF-268 30.5 µM | SF-295 38.7 µM | SK-OV-3 35.6 µM | SNB-75 7.19 µM | SR 22.5 µM | SW-620 22.6 µM | T47D 19.7 µM | UO-31 25.2 µM

N#CC(O)CCOCc1ccccc1 (stereo unspecified)
inactive: 786-0 78.7 µM | COLO 205 > 100 µM | EKVX > 100 µM | HCT-116 66.5 µM | HOP-92 65.2 µM | HT-29 38.6 µM | IGROV-1 > 100 µM | K562 80.7 µM | KM12 > 100 µM | OVCAR-3 > 100 µM | OVCAR-5 > 100 µM | OVCAR-8 > 100 µM | SF-268 5.56 µM | SF-295 > 100 µM | SK-OV-3 > 100 µM | SR > 100 µM | SW-620 45.4 µM | T47D > 100 µM | UO-31 78.7 µM

CN(C(=O)C1=CCCCCC1)c1ccccc1I
inactive: 786-0 27.8 µM | COLO 205 15.8 µM | EKVX 28.4 µM | HCT-116 25.9 µM | HOP-92 > 10 µM | IGROV-1 32.8 µM | K562 59.2 µM | KM12 19.1 µM | OVCAR-3 49.7 µM | OVCAR-5 > 100 µM | OVCAR-8 38.5 µM | SF-268 24.3 µM | SF-295 44.9 µM | SK-OV-3 43.5 µM | SNB-75 13.5 µM | SR 39 µM | SW-620 40.6 µM | T47D 23.7 µM | UO-31 41.4 µM

CC(C)(C)c1cc2c(O)c(c1)Cc1cc(C(C#N)(Cc3ccc4ccccc4c3)Cc3ccc4ccccc4c3)cc(c1O)Cc1cc(C(C)(C)C)cc(c1O)Cc1cc(C(C#N)(Cc3ccc4ccccc4c3)Cc3ccc4ccccc4c3)cc(c1O)C2
inactive: 786-0 > 100 µM | COLO 205 > 100 µM | EKVX > 100 µM | HCT-116 > 100 µM | HOP-92 > 100 µM | HT-29 > 100 µM | IGROV-1 > 100 µM | K562 > 100 µM | KM12 > 100 µM | OVCAR-3 > 100 µM | OVCAR-5 > 100 µM | OVCAR-8 > 100 µM | SF-268 > 100 µM | SF-295 > 100 µM | SK-OV-3 > 100 µM | SNB-75 > 100 µM | SR 60.5 µM | SW-620 > 100 µM | T47D > 100 µM | UO-31 > 100 µM

N#Cc1ccc(-c2nc3c(N)nc(-c4ccccc4)nc3o2)cc1
inactive: 786-0 > 100 µM | COLO 205 > 100 µM | EKVX > 100 µM | HCT-116 31.8 µM | HOP-92 31.5 µM | HT-29 > 100 µM | IGROV-1 > 100 µM | K562 > 100 µM | KM12 > 100 µM | OVCAR-3 61.4 µM | OVCAR-5 > 100 µM | OVCAR-8 12.9 µM | SF-268 > 100 µM | SF-295 51.1 µM | SNB-75 72.9 µM | SR > 100 µM | SW-620 > 100 µM | T47D > 100 µM | UO-31 > 100 µM

c1ccc(-c2ccc(-c3cc4ccccc4[nH]3)cc2)cc1
inactive: 786-0 > 100 µM | COLO 205 > 100 µM | EKVX > 100 µM | HCT-116 > 100 µM | HOP-92 > 100 µM | HT-29 > 100 µM | IGROV-1 > 100 µM | KM12 > 100 µM | OVCAR-3 > 100 µM | OVCAR-5 > 100 µM | OVCAR-8 > 100 µM | SF-268 > 100 µM | SF-295 > 100 µM | SK-OV-3 > 100 µM | SNB-75 > 100 µM | SR > 100 µM | SW-620 > 100 µM | T47D > 100 µM | UO-31 > 100 µM

COc1cc(CNNC(N)=S)cc(OC)c1OC
inactive: 786-0 > 100 µM | COLO 205 > 100 µM | EKVX > 100 µM | HCT-116 > 100 µM | HOP-92 3.46 µM | HT-29 > 100 µM | IGROV-1 > 100 µM | K562 > 100 µM | KM12 > 100 µM | OVCAR-3 > 100 µM | OVCAR-5 95.1 µM | OVCAR-8 > 100 µM | SF-268 > 100 µM | SF-295 > 100 µM | SNB-75 > 100 µM | SR > 100 µM | SW-620 > 100 µM | T47D 7.03 µM | UO-31 > 100 µM

CC(=O)Oc1ccc2c(c1)CC[C@@H]1C2[C@@H](O[N+](=O)[O-])C[C@@]2(C)C1CC[C@@H]2O (stereo partly specified)
inactive: 786-0 33.8 µM | COLO 205 50.8 µM | EKVX 16.8 µM | HCT-116 29.4 µM | HOP-92 > 88.1 µM | HT-29 30.8 µM | IGROV-1 55.3 µM | K562 11.9 µM | KM12 29.9 µM | OVCAR-3 35.1 µM | OVCAR-5 33 µM | OVCAR-8 31.3 µM | SF-268 32.6 µM | SF-295 35.5 µM | SK-OV-3 62.5 µM | SNB-75 45.7 µM | SR 16.4 µM | SW-620 35.5 µM | T47D 47.4 µM | UO-31 43.9 µM

O=C(O)CCCc1ccc2ccc3ccccc3c2c1
inactive: 786-0 > 100 µM | COLO 205 40.8 µM | EKVX > 100 µM | HCT-116 89.1 µM | HOP-92 72.6 µM | HT-29 83.9 µM | IGROV-1 > 100 µM | K562 42.5 µM | KM12 35.6 µM | OVCAR-3 53.6 µM | OVCAR-5 73.5 µM | OVCAR-8 71.9 µM | SF-268 66.2 µM | SF-295 21.8 µM | SNB-75 14 µM | SR 51.9 µM | T47D 52.8 µM | UO-31 88.1 µM
